The source of these data is patent US20260248762A1, “RRX-001 FOR […]-INFARCT ADVERSE V[…] COMPLICATIONS” (EpicentRx, Inc., priority 2022, published 2026).

Structures are written as SMILES.

Data set [1] relates to Male Wistar rats. The experiment in a line: Hypotensive effects after RRx-001 treatment. The data set is classed as in vivo, rat. Conditions: treatment after reperfused MI. As to the method:
(§1) Animal experiments were performed in accordance with protocols approved. Male Wistar rats or subjects (about 8-9 weeks old) were purchased from Charles River (San Diego, California) and allowed about 1 week to acclimatize to the new environment prior to random allocation into four groups (n=8 per group). The groups included: a first group 106 (sham), a second group 108 (RRx-001), a third group 110 (RRx-001 I/R), and a fourth group 112 (I/R).
The first group 106 included sham subjects (e.g., no treatment). The subjects of the second group 108 were given about 5 mg/kg of RRx-001 prepared in dimethyl sulfoxide (DMSO) and administered to the subjects via intravenous administration. The subjects of the second group 108 were not subjected to ischemia. The subjects of the third group 110 were administered about 0.5 mg/kg of RRx-001 prepared in DMSO via intravenous administration during reperfusion after ischemia. The subjects of the fourth group 112 were untreated, but subjected to ischemia and reperfusion. […]
(§2) Regarding the myocardial ischemia reperfusion, the subjects were anesthetized with isoflurane (5% induction and 2% maintenance in 30% oxygen) and placed on a thermal heating pad. […] The knot was removed, the chest was closed, and the hearts of the subjects were monitored for a time period of one hour during reperfusion. […]

Data set [2] has as its system Male Wistar rats. The experiment in a line: Acute changes in heart rate during reperfusion, rat myocardial ischemia reperfusion. It is filed as in vivo. The note with it: infusion of RRx-001, i.v. in DMSO; in sham animals or relative to animals with I/R; FIG. 1. As to the method:
as §1
The first group 106 included sham subjects (e.g., no treatment). The subjects of the second group 108 were given about 5 mg/kg of RRx-001 prepared in dimethyl sulfoxide (DMSO) and administered to the subjects via intravenous administration. The subjects of the second group 108 were not subjected to ischemia. […]
as §2
FIG. 1 depicts a graph comparing acute changes in heart rate (HR) during reperfusion for various groups of Example 1, according to at least some embodiments disclosed herein. FIG. 1 includes an x-axis 102 associated with time (measured in minutes) and a y-axis 104 associated with HR (measured in beats per minute or “bpm”).

As for `O=C(CBr)N1CC([N+](=O)[O-])([N+](=O)[O-])C1` [RRx-001, 2-bromo-1-(3,3-dinitroazetidin-1-yl)ethan-1-one], the hypotensive effects result in data set [1] is on record as “No hypotensive effects were observed”. The “acute changes in heart rate (HR) during reperfusion” value in data set [2] is recorded as “did not result in any acute changes in HR”.
